According to ChEMBL document CHEMBL3745609, “Discovery of pyrazolopyrimidine phosphodiesterase 10A inhibitors for the treatment of schizophrenia” (Bioorg Med Chem Lett, 2016):
pEC50, pIC50, pKi: −log10 of the molar value. Converted amounts (≈) assume the structure as drawn. The source made the active and inactive calls. The calls are words filed in the database; no cut-off is given here.

Key:
[1] = target: cAMP and cAMP-inhibited cGMP 3',5'-cyclic phosphodiesterase 10A (Homo sapiens, UniProt Q9Y233); assay: Inhibition of PDE10A (unknown origin) by IMAP assay
cAMP and cAMP-inhibited cGMP 3',5'-cyclic phosphodiesterase 10A, sequence (Q9Y233 whole entry): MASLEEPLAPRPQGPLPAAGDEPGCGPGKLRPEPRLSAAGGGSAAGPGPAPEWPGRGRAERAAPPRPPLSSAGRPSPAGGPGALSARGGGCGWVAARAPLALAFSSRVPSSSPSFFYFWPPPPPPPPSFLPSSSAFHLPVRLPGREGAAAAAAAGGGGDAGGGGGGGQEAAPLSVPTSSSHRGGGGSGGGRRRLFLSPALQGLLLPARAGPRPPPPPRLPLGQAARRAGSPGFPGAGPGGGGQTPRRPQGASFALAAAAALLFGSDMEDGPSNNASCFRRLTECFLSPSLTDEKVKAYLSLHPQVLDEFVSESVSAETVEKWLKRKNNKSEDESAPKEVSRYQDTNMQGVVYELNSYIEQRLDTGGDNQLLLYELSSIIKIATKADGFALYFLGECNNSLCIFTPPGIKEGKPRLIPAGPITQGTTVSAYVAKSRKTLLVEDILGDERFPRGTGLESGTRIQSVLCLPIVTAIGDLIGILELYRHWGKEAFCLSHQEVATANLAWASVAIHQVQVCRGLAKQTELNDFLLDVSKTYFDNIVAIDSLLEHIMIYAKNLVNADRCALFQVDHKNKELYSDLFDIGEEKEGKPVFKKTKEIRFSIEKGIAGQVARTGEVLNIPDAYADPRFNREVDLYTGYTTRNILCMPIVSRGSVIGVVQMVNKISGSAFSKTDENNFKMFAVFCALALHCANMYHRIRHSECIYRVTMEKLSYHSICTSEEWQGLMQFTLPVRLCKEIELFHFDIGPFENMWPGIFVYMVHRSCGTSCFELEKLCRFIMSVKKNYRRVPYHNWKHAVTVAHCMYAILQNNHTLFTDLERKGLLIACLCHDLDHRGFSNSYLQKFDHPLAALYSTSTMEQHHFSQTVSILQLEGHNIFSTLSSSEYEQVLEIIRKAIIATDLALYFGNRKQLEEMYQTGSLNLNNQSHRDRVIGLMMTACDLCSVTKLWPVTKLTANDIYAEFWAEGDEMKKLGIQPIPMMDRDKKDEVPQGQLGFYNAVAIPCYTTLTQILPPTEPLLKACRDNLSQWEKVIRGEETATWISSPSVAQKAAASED

[2] = Terminal half life in iv dosed beagle dog; type: ADME, organism-based, Canis lupus familiaris; conditions: in vivo, read-out: beta t1/2 (converted)
[3] = system: P-gp; assay: Substrate activity at rat P-gp assessed as efflux ratio of permeability across basolateral to apical over apical to basolateral side; type: ADME; conditions: not told
[4] = species: Homo sapiens; assay: Selectivity for PDE10A (unknown origin) over PDE (unknown origin)
[5] = target: T1, Cytochrome P450 3A4 (Homo sapiens, UniProt P08684); assay: Time dependent inhibition of CYP3A4 (unknown origin); type: ADME
T1 sequence (P08684 whole entry): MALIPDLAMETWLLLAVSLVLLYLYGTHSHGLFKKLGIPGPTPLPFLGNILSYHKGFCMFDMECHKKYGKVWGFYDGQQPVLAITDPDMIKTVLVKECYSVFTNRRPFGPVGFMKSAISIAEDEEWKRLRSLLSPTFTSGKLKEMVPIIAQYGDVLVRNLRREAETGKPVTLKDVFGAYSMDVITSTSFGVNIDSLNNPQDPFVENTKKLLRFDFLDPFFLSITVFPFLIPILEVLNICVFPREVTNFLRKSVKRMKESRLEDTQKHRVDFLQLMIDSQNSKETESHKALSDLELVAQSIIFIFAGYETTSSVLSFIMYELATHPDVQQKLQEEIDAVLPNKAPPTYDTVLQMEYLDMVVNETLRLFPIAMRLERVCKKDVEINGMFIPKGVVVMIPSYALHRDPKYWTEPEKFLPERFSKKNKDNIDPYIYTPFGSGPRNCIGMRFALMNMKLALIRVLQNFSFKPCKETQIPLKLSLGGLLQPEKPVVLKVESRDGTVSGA

[6] = Plasma protein binding in iv dosed rhesus monkey; type: ADME, organism-based, Macaca mulatta; conditions: read-out: PPB (converted)
[7] = system: Rattus norvegicus; assay: Cognition enhancing activity in rat assessed as increase in episodic like memory up to 1.5 mg/kg, po by novel object recognition assay; type: functional, organism-based
[8] = Lipophilicity, log D of the compound at pH 7 by HPLC method; type: physicochemical; conditions: buffer
[9] = Plasma protein binding in iv dosed beagle dog; type: ADME, organism-based, Canis lupus familiaris; conditions: read-out: PPB (converted)
[10] = system: Rhesus monkey; assay: Potency index, ratio of THPP-1 Occ50 to compound Occ50 for in-vivo occupancy at PDE10A in rhesus monkey assessed as inhibition of [11C]MK-8193 binding; type: functional, Macaca mulatta
[11] = Apparent passive permeability of the compound; type: physicochemical; conditions: not told
[12] = system: Rattus norvegicus; assay: In vivo inhibition of PDE10A in rat striatum assessed as increase in cGMP level at >3 mg/kg, po after 2 hrs relative to control; type: functional
[13] = species: Rattus norvegicus; assay: Anti-psychotic activity in rat assessed as reversal of MK-801-induced prepulse inhibition; type: functional, organism-based
[14] = target: Voltage-gated inwardly rectifying potassium channel KCNH2 (Homo sapiens, UniProt Q12809); assay: Inhibition of MK-499 binding to human ERG
Voltage-gated inwardly rectifying potassium channel KCNH2, sequence (Q12809 whole entry): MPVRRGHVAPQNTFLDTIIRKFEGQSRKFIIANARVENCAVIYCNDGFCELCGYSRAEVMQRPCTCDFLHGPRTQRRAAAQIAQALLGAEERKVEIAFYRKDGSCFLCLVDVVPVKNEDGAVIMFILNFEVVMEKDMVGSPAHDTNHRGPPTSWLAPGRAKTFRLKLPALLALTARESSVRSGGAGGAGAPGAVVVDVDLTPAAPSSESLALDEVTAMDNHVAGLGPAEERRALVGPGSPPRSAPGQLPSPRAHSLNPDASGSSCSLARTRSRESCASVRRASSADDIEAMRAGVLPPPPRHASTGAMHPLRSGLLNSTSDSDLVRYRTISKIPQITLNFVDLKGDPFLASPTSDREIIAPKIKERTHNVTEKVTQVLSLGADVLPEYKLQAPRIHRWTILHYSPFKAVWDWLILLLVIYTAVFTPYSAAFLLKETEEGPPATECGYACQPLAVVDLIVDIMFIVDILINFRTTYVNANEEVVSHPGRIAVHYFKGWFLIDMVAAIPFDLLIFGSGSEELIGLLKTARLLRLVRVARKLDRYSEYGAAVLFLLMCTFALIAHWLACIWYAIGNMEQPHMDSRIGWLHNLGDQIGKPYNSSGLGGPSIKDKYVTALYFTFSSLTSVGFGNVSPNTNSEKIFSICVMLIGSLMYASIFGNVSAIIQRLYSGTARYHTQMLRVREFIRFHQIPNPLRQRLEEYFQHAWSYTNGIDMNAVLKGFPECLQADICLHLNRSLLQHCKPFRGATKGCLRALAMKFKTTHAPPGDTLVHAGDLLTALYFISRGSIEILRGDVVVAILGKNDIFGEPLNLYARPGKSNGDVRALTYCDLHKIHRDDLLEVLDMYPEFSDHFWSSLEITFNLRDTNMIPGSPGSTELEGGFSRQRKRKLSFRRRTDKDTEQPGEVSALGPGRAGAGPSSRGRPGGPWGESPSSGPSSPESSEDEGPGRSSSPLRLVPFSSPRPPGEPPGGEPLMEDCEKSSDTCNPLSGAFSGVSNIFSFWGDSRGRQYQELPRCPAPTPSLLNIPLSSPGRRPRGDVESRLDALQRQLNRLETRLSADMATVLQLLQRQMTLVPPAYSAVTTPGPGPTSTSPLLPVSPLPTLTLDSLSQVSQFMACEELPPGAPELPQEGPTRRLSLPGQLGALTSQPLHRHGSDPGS

[15] = system: Rattus norvegicus; assay: Anti-psychotic activity in rat assessed as plasma concentration needed to attenuate MK-801-induced hyperlocomotion at 1.5 mg/kg, po; type: functional
[16] = Oral bioavailability in rhesus monkey; type: ADME, organism-based, Macaca mulatta; conditions: in vivo
[17] = system: Salmonella typhimurium; assay: Mutagenicity in Salmonella typhimurium up to 5000 ug/plate by 5-strain Ames test; type: toxicity, organism-based; conditions: salmonella enterica subsp. enterica serovar typhimurium
[18] = Oral bioavailability in Wistar Hanover rat; type: ADME, organism-based; conditions: in vivo
[19] = Plasma protein binding in iv dosed Wistar Hanover rat; type: ADME, organism-based; conditions: read-out: PPB (converted)
[20] = target: T1, Cytochrome P450 3A4; assay: Inhibition of CYP3A4 (unknown origin); type: ADME
[21] = Plasma clearance in iv dosed Wistar Hanover rat; type: ADME, organism-based
[22] = Plasma protein binding in iv dosed human; type: ADME, organism-based; conditions: read-out: PPB (converted)
[23] = species: Cavia porcellus; assay: Toxicity in guinea pig; type: organism-based; conditions: in vivo
[24] = Plasma clearance in iv dosed rhesus monkey; type: ADME, organism-based, Macaca mulatta
[25] = species: Rattus norvegicus; assay: Toxicity in rat assessed as decrease in body weight gain after 7 days; type: organism-based; conditions: in vivo, 168 h
[26] = Terminal half life in iv dosed Wistar Hanover rat; type: ADME, organism-based; conditions: in vivo, read-out: beta t1/2 (converted)
[27] = Terminal half life in iv dosed rhesus monkey; type: ADME, organism-based, Macaca mulatta; conditions: in vivo, read-out: beta t1/2 (converted)
[28] = Plasma clearance in iv dosed beagle dog; type: ADME, organism-based, Canis lupus familiaris
[29] = system: P-gp; assay: Substrate activity at human P-gp assessed as efflux ratio of permeability across basolateral to apical over apical to basolateral side; type: ADME; conditions: not told
[30] = system: Rhesus monkey; assay: In-vivo occupancy at PDE10A in rhesus monkey assessed as inhibition of [11C]MK-8193 binding; type: functional, Macaca mulatta
[31] = species: Rattus norvegicus; assay: Toxicity in rat assessed as lean body mass after 7 days; type: organism-based; conditions: in vivo, 168 h
[32] = system: Rattus norvegicus; assay: Cardiotoxicity in iv dosed rat; type: toxicity, organism-based; conditions: in vivo
[33] = target: T2, Nuclear receptor subfamily 1 group I member 2 (Homo sapiens, UniProt O75469); assay: Activation of PXR (unknown origin); type: ADME
T2 sequence (O75469 whole entry): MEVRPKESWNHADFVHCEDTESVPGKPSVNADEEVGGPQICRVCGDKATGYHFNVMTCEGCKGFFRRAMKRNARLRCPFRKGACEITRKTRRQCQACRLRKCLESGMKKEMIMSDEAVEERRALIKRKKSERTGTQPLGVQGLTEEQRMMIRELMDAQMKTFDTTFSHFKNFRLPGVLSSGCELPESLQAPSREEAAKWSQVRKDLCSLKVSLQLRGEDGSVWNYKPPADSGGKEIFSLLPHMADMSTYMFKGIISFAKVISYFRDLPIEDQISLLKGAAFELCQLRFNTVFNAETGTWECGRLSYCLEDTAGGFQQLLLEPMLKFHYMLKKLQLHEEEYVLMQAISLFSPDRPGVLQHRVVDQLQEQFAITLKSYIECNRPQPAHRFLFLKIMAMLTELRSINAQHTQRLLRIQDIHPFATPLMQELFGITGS

[34] = species: Rattus norvegicus; assay: Toxicity in rat assessed as decrease in total body fat after 7 days; type: organism-based; conditions: in vivo, 168 h
[35] = system: Rattus norvegicus; assay: Toxicity in rat assessed as influence on circulating prolactin level up to 30 mg/kg, po; type: organism-based; conditions: in vivo
[36] = Inhibition of platelet aggregation factor (unknown origin); parameters: species or system Homo sapiens
[37] = system: Rattus norvegicus; assay: Toxicity in rat assessed as induction of catalepsy up to 30 mg/kg, po; type: organism-based; conditions: in vivo
[38] = Oral bioavailability in beagle dog; type: ADME, organism-based, Canis lupus familiaris; conditions: in vivo
[39] = system: Rattus norvegicus; assay: Toxicity in rat up to 250 mg/kg after 7 days; type: organism-based; conditions: in vivo, 168 h
[40] = target: Cytochrome P450 2D6 (Homo sapiens, UniProt P10635); assay: Inhibition of CYP2D6 (unknown origin); type: ADME
Cytochrome P450 2D6, sequence (P10635 whole entry): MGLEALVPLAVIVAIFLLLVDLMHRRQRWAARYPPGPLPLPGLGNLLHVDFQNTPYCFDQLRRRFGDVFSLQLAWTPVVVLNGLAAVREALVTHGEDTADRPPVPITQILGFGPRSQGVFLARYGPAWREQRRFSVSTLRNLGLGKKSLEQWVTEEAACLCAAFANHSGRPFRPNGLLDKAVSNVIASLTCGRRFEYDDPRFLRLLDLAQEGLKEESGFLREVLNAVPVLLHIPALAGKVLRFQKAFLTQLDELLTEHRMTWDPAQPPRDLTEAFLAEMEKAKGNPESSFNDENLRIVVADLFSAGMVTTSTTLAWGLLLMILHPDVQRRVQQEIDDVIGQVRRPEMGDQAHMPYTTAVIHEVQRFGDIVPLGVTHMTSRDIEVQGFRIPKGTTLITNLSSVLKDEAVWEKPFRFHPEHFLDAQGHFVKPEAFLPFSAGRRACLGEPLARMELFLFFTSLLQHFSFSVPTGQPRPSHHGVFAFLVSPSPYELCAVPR

[41] = Aqueous solubility of the compound at pH 7; type: physicochemical
[42] = Plasma protein binding in rat; type: ADME, cell-free; conditions: read-out: PPB (converted)
[43] = target: Cytochrome P450 2C9 (Homo sapiens, UniProt P11712); assay: Inhibition of CYP2C9 (unknown origin); type: ADME
Cytochrome P450 2C9, sequence (P11712 whole entry): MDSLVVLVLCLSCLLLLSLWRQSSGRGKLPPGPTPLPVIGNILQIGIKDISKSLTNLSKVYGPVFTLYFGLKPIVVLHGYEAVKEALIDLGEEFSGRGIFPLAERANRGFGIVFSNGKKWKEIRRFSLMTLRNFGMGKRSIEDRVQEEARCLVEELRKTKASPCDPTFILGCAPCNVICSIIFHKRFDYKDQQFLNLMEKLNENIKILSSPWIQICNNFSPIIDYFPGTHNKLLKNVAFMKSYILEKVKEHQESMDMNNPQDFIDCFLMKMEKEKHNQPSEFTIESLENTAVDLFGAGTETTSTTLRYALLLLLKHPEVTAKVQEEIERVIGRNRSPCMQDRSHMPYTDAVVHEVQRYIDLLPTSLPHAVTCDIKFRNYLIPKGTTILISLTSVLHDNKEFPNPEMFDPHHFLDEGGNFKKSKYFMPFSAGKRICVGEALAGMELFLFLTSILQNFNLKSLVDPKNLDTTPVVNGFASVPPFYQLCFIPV

[44] = Clearance in rat; type: ADME, organism-based; conditions: in vivo

Cc1nc(C)c(CNc2cc(Cl)nc3ccnn23)s1
pKi [1]: 7.24

Cn1cc(CNc2cc(OC[C@H]3C[C@@H]3c3ccccn3)nc3ccnn23)cn1
half-life [2]: 522 min | efflux ratio [3]: 0.7 | Selectivity ratio [4]: > 5800 | TDI [5]: Not Active | fraction unbound [6]: 0.03 | Activity [7]: Active | logD [8]: 2 | fraction unbound [9]: 0.06 | Ratio [10]: 2 | Papp [11]: 36 ×10⁻⁶ cm/s | inhibition (INH) [12]: >150% | Activity [13]: Dose-dependent effect | INH [14]: > 60 µM | Activity [15]: 130 nM | bioavailability [16]: 46% | Activity [17]: Non-toxic | bioavailability [18]: 41% | fraction unbound [19]: 0.09 | pIC50 [20]: < 4.30 | clearance [21]: 21 mL/min/kg | fraction unbound [22]: 0.07 | Activity [23]: Non-toxic | clearance [24]: 8.2 mL/min/kg | Activity [25]: Toxic | half-life [26]: 294 min | half-life [27]: 168 min | clearance [28]: 3.9 mL/min/kg | efflux ratio [29]: 0.6 | Occ50 [30]: 1.1 µM | Activity [31]: Toxic | Activity [32]: Non-toxic | pEC50 [33]: < 4.60 | Activity [34]: Toxic | Activity [35]: Non-toxic | pIC50 [36]: 5.66 | Activity [37]: Non-toxic | bioavailability [38]: 63% | pKi [1]: 9.64 | Activity [39]: Non-toxic

COc1ccnc(C2CC2COc2nc(Cl)c(C)c(NCc3sc(C)nc3C)n2)c1 (racemic)
pKi [1]: 11.00

Cc1nc(C)c(CNc2nc(OCC#Cc3ccccn3)nc(Cl)c2C)s1
pKi [1]: 8.51

Cc1nc(C)c(CNc2nc(OCCCc3ccccn3)nc(Cl)c2C)s1
pKi [1]: 8.96

Cc1ccnc(C2CC2COc2nc(Cl)c(C)c(NCc3sc(C)nc3C)n2)c1 (centres undefined)
pKi [1]: 11.00

Cc1nc(C)c(CNc2nc(C3CC3)nc(Cl)c2C)s1
pIC50 [40]: 5.09 | fraction unbound [19]: 0.015 | pIC50 [20]: 4.77 | solubility [41]: 2 µM (≈ 0.618 µg/mL) | pEC50 [33]: 4.72

Cc1nc(C)c(CNc2nc(OCC3CC3c3cn(C)cn3)nc(Cl)c2C)s1 (racemic)
pKi [1]: 10.70

Cc1nc(C)c(CNc2nc(OCC3CC3c3ncccn3)nc(Cl)c2C)s1 (racemic)
pKi [1]: 8.44

Cc1nc(C)c(CNc2nc(CCCCc3ccccn3)nc(Cl)c2C)s1
pKi [1]: 9.40

Clc1cc(Cl)n2nccc2n1
solubility [41]: > 500 µM | pKi [1]: 4.62

Cc1nc(C)c(CNc2nc(OCC3CC3c3cncn3C)nc(Cl)c2C)s1 (centres undefined)
pKi [1]: 7.69

Cc1nc(C)c(CNc2nc(NCCCc3ccccn3)nc(Cl)c2C)s1
pKi [1]: 8.39

Cc1nc(C)c(CNc2nc(CC[C@H]3C[C@@H]3c3ccccn3)nc(Cl)c2C)s1 (racemic)
pKi [1]: 8.77

Cc1nc(C)c(CNc2nc(OCC3CC3c3ccncc3)nc(Cl)c2C)s1 (centres undefined)
pKi [1]: 8.08

Cc1nc(C)c(CNc2nc(OCC3CC3c3ccc(C#N)cn3)nc(Cl)c2C)s1 (racemic)
pKi [1]: 8.85

Cc1nc(C)c(CNc2nc(CCCOc3ccccn3)nc(Cl)c2C)s1
pKi [1]: 8.51

Cc1nc(C)c(CNc2nc(OCC3CC3C3CCCN3C)nc(Cl)c2C)s1 (racemic; form 2)
pKi [1]: 7.27

Cc1nc(C)c(CNc2nc(OC[C@@H]3C[C@H]3c3ccccn3)nc(Cl)c2C)s1
pKi [1]: 8.07

Cc1nc(C)c(CNc2nc(OC[C@H]3C[C@@H]3c3ccccn3)nc(Cl)c2C)s1 (racemic)
pKi [1]: 10.15

Cn1cc(-c2ccncc2)c(-c2ccc(OCc3ccc4ccccc4n3)cc2)n1 [MARDEPODECT]
solubility [41]: 4 µM (≈ 1.57 µg/mL)

Cc1nc(C)c(CNc2nc(OCC3CC3c3cc4ccccn4n3)nc(Cl)c2C)s1 (racemic)
pKi [1]: 11.22

Cc1nc(C)c(CNc2cc(C3CC3)nc3ccnn23)s1
INH [14]: 52 µM | pIC50 [20]: < 4.30 | solubility [41]: 196 µM (≈ 58.7 µg/mL) | pEC50 [33]: < 3.60 | fraction unbound [42]: 0.08

Cc1nc(C)c(CNc2nc(OC[C@H]3C[C@H]3c3ccccn3)nc(Cl)c2C)s1 (racemic)
pKi [1]: 7.81

Cc1nc(C)c(CNc2nc(OCCCc3ccc4ccccc4n3)nc(Cl)c2C)s1
INH [14]: 3.8 µM | clearance [21]: 60 mL/min/kg | pEC50 [33]: 5.64

Cc1nc(C)c(CNc2nc(OCC3CC3C3CCCN3C)nc(Cl)c2C)s1 (racemic; form 1)
pKi [1]: 6.99

Cc1nc(C)c(CNc2nc(OC[C@H]3C[C@@H]3c3ccccn3)nc(Cl)c2C)s1
pKi [1]: 10.52

Cc1nc(C)c(CNc2nc(OCC3CC3c3ccc4ncccc4n3)nc(Cl)c2C)s1 (racemic)
pKi [1]: 10.70

Cc1nc(C)c(CNc2nc(NCC(C)(C)Cc3ccccn3)nc(Cl)c2C)s1
pKi [1]: 7.72

Cc1c(Cl)nc(OC[C@H]2C[C@@H]2c2ccccn2)nc1NCc1cnn(C)c1
pIC50 [43]: 5.28 | Selectivity ratio [4]: > 2500 | INH [14]: > 60 µM | pIC50 [20]: 5.42 | solubility [41]: 162 µM (≈ 62.3 µg/mL) | pEC50 [33]: 5.25 | clearance [44]: 29 mL/min/kg | fraction unbound [42]: 0.01

Cc1nc(C)c(CNc2nc(OCC3CC3c3ccc4ccccc4n3)nc(Cl)c2C)s1 (racemic)
pKi [1]: 11.00

Cc1nc(C)c(CNc2nc(CCC#Cc3ccccn3)nc(Cl)c2C)s1
pKi [1]: 8.96

Cc1c(Cl)nc(C2CC2)nc1Cl
solubility [41]: 150 µM (≈ 30.5 µg/mL)
